Experimental data: ChEMBL document CHEMBL5550185, “Targeting hTERT Promoter G-Quadruplex DNA Structures with Small-Molecule Ligand to Downregulate hTERT Expression for Triple-Negative Breast Cancer Therapy” (J Med Chem, 2024)
pIC50: −log10 of the molar value.

How the values were obtained:
[1] = Cytotoxicity against HUVEC cells assessed as inhibition of cell growth incubated for 48 hrs by MTT assay; format: toxicity, cell-based; settings: human
[2] = system: MDA-MB-231; assay: Cytotoxicity against telomerase-positive human MDA-MB-231 cells assessed as inhibition of cell growth incubated for 48 hrs by MTT assay; format: functional, cell-based; settings: MDA-MB-231, 48 h
[3] = system: PC-3; assay: Cytotoxicity against telomerase-positive human PC-3 cells assessed as inhibition of cell growth incubated for 48 hrs by MTT assay; format: functional, cell-based; settings: PC-3, 48 h
[4] = system: U2OS; assay: Cytotoxicity against alternative lengthening of telomere-positive human U2OS cells assessed as inhibition of cell growth incubated for 48 hrs by MTT assay; format: functional, cell-based
[5] = Cytotoxicity against human HK-2 cells assessed as inhibition of cell growth incubated for 48 hrs by MTT assay; format: toxicity, cell-based
[6] = system: HepG2; assay: Cytotoxicity against telomerase-positive human HepG2 cells assessed as inhibition of cell growth incubated for 48 hrs by MTT assay; format: functional, cell-based; settings: HepG2, 48 h
[7] = system: A549; assay: Cytotoxicity against telomerase-positive human A549 cells assessed as inhibition of cell growth incubated for 48 hrs by MTT assay; format: functional, cell-based; settings: A549, 48 h
[8] = system: HeLa; assay: Cytotoxicity against telomerase-positive human HeLa cells assessed as inhibition of cell growth incubated for 48 hrs by MTT assay; format: functional, cell-based

Compound: C[n+]1c(/C=C/c2c[nH]c3ccccc23)cc(/C=C2\Sc3ccccc3N2CCCN2CCOCC2)c2ccccc21
- IC50 at 48 h [1]: 16.5 µM
- pIC50 [2]: 5.54
- pIC50 [3]: 5.33
- pIC50 [4]: 5.11
- IC50 at 48 h [5]: 5.8 µM
- pIC50 [6]: 5.24
- pIC50 [7]: 5.68
- pIC50 [8]: 5.64

Compound: CC(C)(C)OO [TERT-BUTYL HYDROPEROXIDE]
- pIC50 [2]: 3.26

Compound: CC1CCN(CCCN2/C(=C/c3cc(/C=C/c4cc5ccccc5[nH]4)[n+](C)c4ccccc34)Sc3ccccc32)CC1
- IC50 at 48 h [1]: 8 µM
- pIC50 [2]: 5.59
- pIC50 [3]: 5.60
- pIC50 [4]: 5.21
- IC50 at 48 h [5]: 6.3 µM
- pIC50 [6]: 5.30
- pIC50 [7]: 5.37
- pIC50 [8]: 5.51

Compound: CCN(CC)CCCN1/C(=C/c2cc(/C=C/c3c[nH]c4ccccc34)[n+](C)c3ccccc23)Sc2ccccc21
- IC50 at 48 h [1]: 14.5 µM
- pIC50 [2]: 5.68
- pIC50 [3]: 5.27
- pIC50 [4]: 5.03
- IC50 at 48 h [5]: 4.6 µM
- pIC50 [6]: 5.33
- pIC50 [7]: 5.64
- pIC50 [8]: 5.72

Compound: C[n+]1c(/C=C/c2cc3ccccc3[nH]2)cc(/C=C2\Sc3ccccc3N2CCCN2CCCCC2)c2ccccc21
- IC50 at 48 h [1]: 9.4 µM
- pIC50 [2]: 5.48
- pIC50 [3]: 5.48
- pIC50 [4]: 5.30
- IC50 at 48 h [5]: 7.9 µM
- pIC50 [6]: 5.35
- pIC50 [7]: 5.44
- pIC50 [8]: 5.52

Compound: C[n+]1c(/C=C/c2cc3ccccc3[nH]2)cc(/C=C2\Sc3ccccc3N2CCCN2CCOCC2)c2ccccc21
- IC50 at 48 h [1]: 16.6 µM
- pIC50 [2]: 5.19
- pIC50 [3]: 5.32
- pIC50 [4]: 4.83
- IC50 at 48 h [5]: 9.5 µM
- pIC50 [6]: 5.28
- pIC50 [7]: 5.30
- pIC50 [8]: 5.39

Compound: CC1CCN(CCCN2/C(=C/c3cc(/C=C/c4c[nH]c5ccccc45)[n+](C)c4ccccc34)Sc3ccccc32)CC1
- IC50 at 48 h [1]: 6 µM
- pIC50 [2]: 5.72
- pIC50 [3]: 5.62
- pIC50 [4]: 5.28
- IC50 at 48 h [5]: 5.5 µM
- pIC50 [6]: 5.49
- pIC50 [7]: 5.77
- pIC50 [8]: 5.72

Compound: C[n+]1c(/C=C/c2cc3ccccc3[nH]2)cc(/C=C2\Sc3ccccc3N2CCCN2CCC(C(F)(F)F)CC2)c2ccccc21
- IC50 at 48 h [1]: 12 µM
- pIC50 [2]: 5.28
- pIC50 [3]: 5.41
- pIC50 [4]: 5.01
- IC50 at 48 h [5]: 14.7 µM
- pIC50 [6]: 5.33
- pIC50 [7]: 5.18
- pIC50 [8]: 5.26

Compound: CCN(CC)CCCN1/C(=C/c2cc(/C=C/c3cc4ccccc4[nH]3)[n+](C)c3ccccc23)Sc2ccccc21
- IC50 at 48 h [1]: 11.9 µM
- pIC50 [2]: 5.25
- pIC50 [3]: 5.51
- pIC50 [4]: 4.99
- IC50 at 48 h [5]: 9.5 µM
- pIC50 [6]: 5.27
- pIC50 [7]: 5.33
- pIC50 [8]: 5.48

Compound: C[n+]1c(/C=C/c2c[nH]c3ccccc23)cc(/C=C2\Sc3ccccc3N2CCCN2CCCCC2)c2ccccc21
- IC50 at 48 h [1]: 11.9 µM
- pIC50 [2]: 5.51
- pIC50 [3]: 5.42
- pIC50 [4]: 5.29
- IC50 at 48 h [5]: 5.4 µM
- pIC50 [6]: 5.35
- pIC50 [7]: 5.77
- pIC50 [8]: 5.74
